3 substances from US7723299B2, “Methods for treating rheumatoid arthritis using a CTLA-4 fusion protein” (ForHumanTech. Co., Ltd., priority 2005, dated 2010) can be followed below.

No end group written: not given here.

One assay has as its system Jurkat (E6.1) cells. The experiment in a line: Transduction efficiency and kinetics of Hph-1-β-gal, western blot. The format is cell-based. How it is done: (§1) After the Hph-1-β-gal construct was transduced into each cell line for 1 hour, the cells were washed with PBS and fixed immediately. Then, the fixed cells were incubated with X-Gal solution for 1-3 hours at 37° C. The mice tissue samples from the liver, kidney, heart, lung, spleen and brain were isolated at 12 hours after i.p. injection of Hph-1-β-gal, sectioned (in 10- and 50-μm sections), and assayed using an X-Gal staining kit (Roche) (Schwarze S. R., et al., Science 285:1569-1572 (1999)). The image was captured by fluorescence microscopy (Nikon). Transduction capacity of Hph-1-β-gal was also analyzed by western blot analysis. Equal numbers of cells were solubilized in SDS-PAGE sample buffer and the proteins were resolved on a 12% gel, and blotted onto PVDF, which was probed with monoclonal antibody (1:1,000) to β-gal (Cell Signaling). Bound antibody was detected using horseradish peroxidase-conjugated antibody to mouse IgG (1:5,000), followed by enhanced chemiluminescence (Pierce). To monitor the localization of the Hph-1-PTD-eGFP fusion protein, Hela cells were incubated with 10 μM of Hph-1-eGFP fusion protein for 30 min and the fluorescence of eGFP was analyzed by confocal microscopy (Bio Rad).
Using the purified Hph-1-β-gal fusion protein or the control β-gal protein, transduction efficiency was analyzed by western blot analysis in Jurkat (E6.1) cells. […] (FIG. 11B).

Assay [1] relates to HeLa, HepG2, HaCat and NIH3T3. The experiment in a line: Transduction efficiency in various cell lines, X-gal staining. The format is cell-based. The settings on record: 1 hour incubation with Hph-1-β-gal. How it is done:
FIG. 1C are photographs of transduction efficiency of Hph-1 in several cell lines, including HeLa, HepG2, HaCat and NIH3T3. After 1 hour incubation with Hph-1-β-gal, cells were fixed and stained with X-gal solution. The images were then captured by fluorescence microscopy.
as §1, with “Equal numbers of cells were solubilized in SDS-PAGE sample buffer and the proteins were resolved on a 12% gel, and blotted onto PVDF, which was probed with monoclonal antibody (1:1,000) to β-gal (Cell Signaling).” left out, “Rad). […]” for “Rad).”

A further assay relates to OVA-challenged mice. The experiment in a line: OVA-induced allergic asthma model. The settings on record: for histological examination of lung tissues, infiltration of inflammatory cells / infiltration of inflammatory cells (eosinophils, macrophages, neutrophils, lymphocytes) into BAL fluid: OVA challenge; for infiltration of inflammatory cells (eosinophils, macrophages, neutrophils, lymphocytes) into BAL fluid: intra-nasal pretreatment.

Assay [2] has as its system Jurkat T cells or primary human CD4^+ T cells. In words: Induction of CD69 and CD25 on activated T cells, FACS. Type of assay: cell-based. The following applies: anti-CD28 mAb and plate-bound anti-CD3 mAb stimulation. How it is done: (§2) Primary human CD4^+ T cells were purified from buffy coats from healthy donors. PBMC were isolated by density gradient centrifugation using Histopaque (Sigma). The lymphocyte layer was collected and CD4^+ T cells were isolated by MACS column using CD4 microbeads (Miltenyi Biotec) (Busch R., et al., J. Immunol. Methods 286:97-109 (2004)).
(§3) One million Jurkat (E6.1) cells or primary human CD4^+ T cells were treated with Hph-1-ctCTLA-4 for 1 hour, then washed with PBS and incubated with 0.25 μg of anti-CD28 mAb (Pharmingen) for 20 min at 4° C. The anti-CD28 mAb bound cells were further activated in 0.05 μg of anti-CD3 mAb (Pharmingen) coated plates for 20 hours. Each cell was stained with anti-CD69-PE and anti-CD25-FITC antibodies (Pharmingen) and analyzed by FACS calibur (Becton Dickinson). The supernatant in each well was analyzed for the level of secreted IL-2 by ELISA (R&D system).
(§4) To examine whether the delivered Hph-1-ctCTLA-4 can inhibit T cell activation, Jurkat T cells or primary human CD4^+ T cells were treated with Hph-1-ctCTLA-4 and stimulated with anti-CD28 mAb and plate-bound anti-CD3 mAb. The levels of activation-induced surface proteins such as CD69 and CD25 were analyzed by FACS.

Assay [3] has as its system Jurkat T cells and primary human CD4^+ T cells. The experiment in a line: IL-2 secretion of T cells activated with anti-CD3 and anti-CD28 mAbs, ELISA. The format is cell-based. The settings on record: for inhibition of induction of IL-2 secretion: Jurkat or human CD4^+ T cells, fusion and control proteins. As for the experimental part: as §2, §3, §4
A further assay has as its system Zap70, ERK and JNK. The experiment in a line: Tyrosine phosphorylation of signaling mediators after TcR stimulation. The following applies: T cells. Type of assay: cell-based.
The subject of another assay is Jurkat T cells. In words: Transduction efficiency and kinetics of Hph-1-ctCTLA-4, intracellular staining. The format is cell-based. How it is done: Transduction efficiency of Hph-1-HA-ctCTLA-4 was analyzed by intracellular staining using HA-fluorescein mAb (Cell Signaling). After cells were permeablized by cytofix/cytoperm solution (Pharmingen) and incubated with HA-fluorescein mAb at 4° C. for 30 min. Intracellular fluorescence was determined by FACS calibur (Becton Dickinson).
By taking advantage of the capacity of Hph-1-PTD to deliver a large target protein into the cells or organs in vivo through nasal airway, a fusion protein of Hph-1-PTD and the cytoplasmic domain of CTLA-4 (Hph-1-PTD-ctCTLA-4) was constructed as described in FIG. 3A, to be used for local suppression of the immune response in an asthma model. We constructed control proteins comprised of ctCTLA-4 without Hph-1-PTD and Hph-1-ctCTLA-4YF, in which two tyrosine residues essential for its negative function were mutated into phenylalanine. The transduction efficiency of Hph-1-ctCTLA-4 was tested in Jurkat T cells, which are known not to express CTLA-4 on the surface. These cells were treated with different concentrations of Hph-1-ctCTLA-4 for different periods of time, and both the transduction efficiency and kinetics were analyzed by intracellular staining.

The mark [4] stands for this setting: single pretreatment, 25 μg, OVA-challenged mice.

Regarding “Hph-1-PTD: protein transduction domain of 11 amino acids (YARVRRRGPRR) from human transcriptional factor Hph-1; tested as β-gal fusion (also: tested as β-gal fusion; listed as Homo sapiens)”, in the assay on Jurkat (E6.1) cells (4° C.), the “reduction of transduction efficiency at 4° C.” value is listed as 40%. Besides, in the assay with Jurkat (E6.1) cells (Jurkat (E6.1) cells), the “concentration dependence of protein transduction” value is “concentration-dependent manner”. The “cells positive for β-gal enzyme activity” value in assay [1] is given as about 100%.

On to “Hph-1-ctCTLA-4YF: control protein in which two tyrosine residues essential for its negative function were mutated into phenylalanine (KMLKKRSPLTTGVFVKMPPTEPECEKQFQPFFIPIN; ctCTLA-4YF) [reference compound]”, for which, in the assay on OVA-challenged mice, the “histological examination of lung tissues, infiltration of inflammatory cells” value is recorded as “not observed”. The “infiltration of inflammatory cells (eosinophils, macrophages, neutrophils, lymphocytes) into BAL fluid” value with OVA-challenged mice (25 μg) is “did not show these inhibitory effects”. Besides, the “production of eotaxin and Th2 type cytokines (IL-5, IL-6, IL-13) in BAL fluid” value with OVA-challenged mice (setting [4]) was “no inhibition”. Further, in assay [2], the “induction of surface marker proteins CD69 and CD25” value is recorded as “did not show any inhibition”. Also, in assay [3], the “inhibition of induction of IL-2 secretion” value is recorded as “neither ctCTLA-4 without Hph-1-PTD nor Hph-1-ctCTLA-4YF blocked IL-2 secretion”.

With “Hph-1-ctCTLA-4: fusion protein of Hph-1-PTD and the cytoplasmic domain of CTLA-4 (KMLKKRSPLTTGVYVKMPPTEPECEKQFQPYFIPIN; ctCTLA-4)”, in the assay with OVA-challenged mice, the “histological examination of lung tissues, infiltration of inflammatory cells” value is reported as “Inflammatory cells could not infiltrate through the mucus”. Further, the “inflammatory index in the lung” value in the assay with OVA-challenged mice (OVA-challenged mice, pretreated) is “significantly reduced”. Further, the “infiltration of inflammatory cells (eosinophils, macrophages, neutrophils, lymphocytes) into BAL fluid” value in the assay with OVA-challenged mice (25 μg) was “prevent against the infiltration of these inflammatory cells into the BAL fluid to the levels observed in the PBS-challenged control group”. The “OVA-induced airway hyper-responsiveness to methacholine” value with OVA-challenged mice (nebulized methacholine) is reported as “substantially attenuated”. Further, the “neutrophil and macrophage infiltration” value with OVA-challenged mice (single administration of about 1 mg/kg through the nasal route before the first OVA challenge) is given as “effectively inhibited”. Further, in the assay with OVA-challenged mice (setting [4]), the “generation of IFN-γ and TGF-β in BAL fluid” value was “not found to affect”; the “production of eotaxin and Th2 type cytokines (IL-5, IL-6, IL-13) in BAL fluid” value is given as “significantly inhibited”. Besides, in the assay on Zap70, ERK and JNK, the “induction of tyrosine phosphorylation of Zap70, ERK and JNK” value was “markedly inhibited”. In assay [2], the “induction of surface marker proteins CD69 and CD25” value is “significantly inhibited”. In addition, in assay [3], the “concentration that effectively blocks T cell activation” value is reported as 10 pM and the “inhibition of induction of IL-2 secretion” value is reported as “concentration dependent manner at picomolar range”. Further, the “level of inhibition of IL-2 secretion compared with CsA” value in assay [3] (10 pM of Hph-1-ctCTLA-4 versus CsA) is given as “better or equivalent”. In addition, the “fold lower concentration than CsA for comparable inhibition of T cell activation” value in assay [3] (versus CsA) was 1000 fold. Besides, in the assay with Jurkat T cells (after incubation), the “time to maximal levels of intracellular protein” value turned out to be 60 min. Besides, in the assay on Jurkat T cells (intracellular staining), the “transduction into the cells” value is recorded as “concentration-dependent”.
